According to PubChem BioAssay (NCI):
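Protocol summary: plate cells (96-well), add compound at 5 concentrations, incubate 48 h, interpolate endpoints linearly. GI50 marks 50% less growth. Definition used: TGI = concentration required for complete inhibition of growth.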

Legend:
Experiment in all cases: DTP human tumour cell line panel, 48 h
[1] = test system: MDA-MB-468 breast
[2] = test system: NCI-H23 lung
[3] = test system: BT-549 breast
[4] = test system: KM12 colon
[5] = test system: SN12C renal
[6] = test system: SK-OV-3 ovarian
[7] = test system: IGROV1 ovarian
[8] = test system: K-562 leukemia
[9] = test system: MDA-MB-231 breast
[10] = test system: SW-620 colon
[11] = test system: U251 CNS
[12] = test system: SF-268 CNS
[13] = test system: A549 NSCLC
[14] = test system: SK-MEL-28 melanoma
[15] = test system: LOX IMVI melanoma
[16] = test system: OVCAR-8 ovarian
[17] = test system: CCRF-CEM leukemia
[18] = test system: HL-60(TB) leukemia
[19] = test system: NCI-H226 lung
[20] = test system: UACC-257 melanoma
[21] = test system: T-47D breast
[22] = test system: EKVX NSCLC
[23] = test system: MOLT-4 leukemia
[24] = test system: HCC-2998 colon
[25] = test system: SF-295 CNS
[26] = test system: TK-10 renal
[27] = test system: COLO 205 colon
[28] = test system: UACC-62 melanoma
[29] = test system: RXF 393 renal
[30] = test system: NCI-H460 lung
[31] = test system: UO-31 renal
[32] = test system: M14 melanoma
[33] = test system: PC-3 prostate
[34] = test system: SK-MEL-5 melanoma
[35] = test system: MDA-MB-435
[36] = test system: ACHN renal
[37] = test system: OVCAR-5 ovarian
[38] = test system: NCI-H522 lung
[39] = test system: HOP-62 NSCLC
[40] = test system: SF-539 CNS
[41] = test system: OVCAR-3 ovarian
[42] = test system: HCT-15 colon
[43] = test system: CAKI-1 renal
[44] = test system: HS 578T breast
[45] = test system: SNB-75 CNS
[46] = test system: RPMI-8226 leukemia
[47] = test system: HT29 colon
[48] = test system: OVCAR-4 ovarian
[49] = test system: A498 renal
[50] = test system: 786-0 renal
[51] = test system: MALME-3M melanoma
[52] = test system: DU-145 prostate
[53] = test system: SR leukemia
[54] = test system: MCF7 breast
[55] = test system: HOP-92 NSCLC
[56] = test system: HCT-116 colon
[57] = test system: SNB-19 CNS

Cc1cc(C)c(O)c(CNCCCCCCNCc2cc(C)cc(C)c2O)c1
GI50 [1]: 1.6 µM | TGI [1]: 3.12 µM

Nc1nc(Nc2ccc3c(c2)CC[C@@H](N2CCCC2)CC3)nn1-c1cc2c(nn1)-c1ccccc1CCC2
GI50 [1]: 1.75 µM | TGI [1]: 3.39 µM

Fc1ccc(Oc2nccc(-c3c(-c4ccc(F)cc4)ncn3C3CCNCC3)n2)cc1
GI50 [1]: 4.7 µM | TGI [1]: > 24 µM

COc1ccc2c(c1)nc(N)c1c3cc(OC)c(OC)cc3cn21
GI50 [1]: 0.0339 µM | TGI [1]: 12.5 µM

CCCCCCCCCNCCCCCCCCC
GI50 [1]: 1.77 µM | TGI [1]: 3.22 µM

CC([C@H]1CCC2C3CCC4C[C@@H](NC=O)CC[C@]4(C)C3CC[C@@]21C)N(C)C (some centres undefined)
GI50 [1]: 1.42 µM | TGI [1]: 3.73 µM

CC(=O)Nc1nc(SCc2ccccc2)c2ncn(C(C)=O)c2n1
GI50 [1]: 24.8 µM | TGI [1]: > 100 µM

CCN(CC)CCOc1ccc(Nc2ncc3cc(-c4ccc(O)cc4)c(=O)n(C)c3n2)cc1
GI50 [1]: 3.9 µM | TGI [1]: 24.2 µM

CCCCCCCCCCC(C[N+](C)(C)C/C=C/c1ccccc1)C(O)c1ccccc1 (centres undefined)
GI50 [1]: 1.37 µM | TGI [1]: 3.06 µM

c1ccc2[nH]c(SSc3nc4ncncc4[nH]3)nc2c1
GI50 [1]: 0.232 µM | TGI [1]: > 76.5 µM

O=C(Nc1ccc(-n2cc(-c3ccncc3)c(-c3ccc(Cl)c(O)c3)n2)cc1)Nc1cc(C(F)(F)F)cc(C(F)(F)F)c1
GI50 [1]: 1.79 µM | TGI [1]: 5.04 µM

Nc1ccc(C(=O)c2ccc(N)c(Br)c2)cc1Br
GI50 [1]: 0.248 µM | TGI [1]: 0.709 µM

COc1ccc(/C=C2\CN(C(=O)C(Cl)Cl)C/C(=C\c3ccc(OC)c(OC)c3)C2=O)cc1OC
GI50 [1]: 0.224 µM | TGI [1]: 0.621 µM

C=C1CC[C@@]2(C#N)[C@H]3[C@H](CC[C@@H]2C)[C@@H](C)C[C@@H](CC(C)(C)C#N)[C@H]13
GI50 [1]: 2.79 µM | TGI [1]: 25.9 µM

O=C(N/N=C\c1ccc(F)cc1)c1ccc2nc(-c3ccc(Br)cc3)[nH]c2c1
GI50 [1]: 1.98 µM | TGI [1]: 3.99 µM

COc1c(C)c2c(c(O)c1C/C=C(\C)CCC(=O)OCCN1CCOCC1)C(=O)OC2
GI50 [1]: 0.421 µM | TGI [1]: > 100 µM

O=C(Nc1ccc(-n2cc(-c3ccncc3)c(-c3ccc(O)c(Cl)c3)n2)cc1)c1cc(Cl)cc(Cl)c1
GI50 [1]: 3.17 µM | TGI [1]: > 32.5 µM

CCN1C(=O)N(CC)C2C1NN=c1s/c(=C3\C(=O)N(CC(C)C)c4ccccc43)c(=O)n12 (centres undefined)
GI50 [1]: 0.351 µM | TGI [1]: 15.9 µM

CC(=O)Nc1cccc(-n2cnc3cc(-c4ccc(O)cc4)ccc32)c1
GI50 [1]: 0.259 µM | TGI [1]: 0.65 µM

Cc1ccccc1CN1CC2=C(CCN(Cc3ccccc3)C2=O)N2CCN=C12
GI50 [1]: 0.773 µM | TGI [1]: 6.83 µM

N=C1c2nc3n(c2C(=O)c2nc4n(c21)CCCC4)CCCC3
GI50 [1]: 8.95 µM | TGI [1]: 53.4 µM

COc1cc(Cl)cc(-c2nn(C(=O)NCCN3CCN(C)CC3)cc2-c2ccncc2)c1
GI50 [1]: 10.5 µM | TGI [1]: 49.9 µM

O=[N+]([O-])c1ccc(-c2nc(N(CCO)CCO)c3ccccc3n2)o1
GI50 [1]: 0.0553 µM | TGI [1]: 0.195 µM

COc1cc(NC(=O)c2cc(OC)c3ccn(C)c3c2)cc2c1C[C@]1(C)CC[C@@H](O)C(C)(C)[C@H]1O2
GI50 [1]: 6.61 µM | TGI [1]: > 100 µM

COc1ccccc1N1CCN(C2=NN=C(c3cccc(Cl)c3)c3ccccc3C2)CC1
GI50 [1]: 0.382 µM | TGI [1]: > 100 µM

CC1(C)NCCC[C@]2(C)[C@H]3C=CC4=C5C[C@](C)(CO)CC[C@]5(C)CC[C@@]4(C)[C@]3(C)CC[C@@H]12
GI50 [1]: 10.4 µM | TGI [1]: 24 µM

CCC(C)(C)c1ccc(OCCCCN2CCN(c3ccncc3)CC2)cc1
GI50 [2]: 5.46 µM | TGI [2]: 18.4 µM | GI50 [3]: 5.79 µM | TGI [3]: 19.2 µM | GI50 [4]: 10.8 µM | TGI [4]: 24.3 µM | GI50 [5]: 13 µM | TGI [5]: 26 µM | GI50 [6]: 14.7 µM | TGI [6]: 29 µM | GI50 [7]: 13.7 µM | TGI [7]: 27.3 µM | GI50 [8]: 1.98 µM | TGI [8]: 11.2 µM | GI50 [9]: 11 µM | TGI [9]: 23.4 µM | GI50 [10]: 4.82 µM | TGI [10]: 18.2 µM | GI50 [11]: 5.92 µM | TGI [11]: 19.4 µM | GI50 [12]: 15.3 µM | TGI [12]: 31 µM | GI50 [13]: 12.5 µM | TGI [13]: 27.3 µM | GI50 [14]: 7.48 µM | TGI [14]: 20.3 µM | GI50 [15]: 1.9 µM | TGI [15]: 3.64 µM | GI50 [1]: 2.27 µM | TGI [1]: 5.8 µM | GI50 [16]: 14.1 µM | TGI [16]: 32 µM | GI50 [17]: 6.07 µM | TGI [17]: 37.7 µM | GI50 [18]: 1.93 µM | TGI [18]: 4.42 µM | GI50 [19]: 11.5 µM | TGI [19]: 25.3 µM | GI50 [20]: 13.4 µM | TGI [20]: 27.5 µM | GI50 [21]: 5.27 µM | TGI [21]: 22.8 µM | GI50 [22]: 7.78 µM | TGI [22]: 21.6 µM | GI50 [23]: 4.63 µM | TGI [23]: 24.4 µM | GI50 [24]: 2.29 µM | TGI [24]: 5.48 µM | GI50 [25]: 4.02 µM | TGI [25]: 15.3 µM | GI50 [26]: 15.9 µM | TGI [26]: 29.8 µM | GI50 [27]: 2.14 µM | TGI [27]: 4.03 µM | GI50 [28]: 13.5 µM | TGI [28]: 26.4 µM | GI50 [29]: 2.77 µM | TGI [29]: 14.6 µM | GI50 [30]: 10.1 µM | TGI [30]: 24 µM | GI50 [31]: 12.2 µM | TGI [31]: 24.7 µM | GI50 [32]: 10.6 µM | TGI [32]: 22.8 µM | GI50 [33]: 5.29 µM | TGI [33]: 25.4 µM | GI50 [34]: 6.63 µM | TGI [34]: 19.3 µM | GI50 [35]: 8.9 µM | TGI [35]: 21.1 µM | GI50 [36]: 15 µM | TGI [36]: 28.3 µM | GI50 [37]: 12.7 µM | TGI [37]: 25.2 µM | GI50 [38]: 15.6 µM | TGI [38]: 31 µM | GI50 [39]: 12.4 µM | TGI [39]: 27 µM | GI50 [40]: 5.15 µM | TGI [40]: 18.2 µM | GI50 [41]: 11.2 µM | TGI [41]: 24 µM | GI50 [42]: 2.08 µM | TGI [42]: 4.82 µM | GI50 [43]: 13.9 µM | TGI [43]: 27.5 µM | GI50 [44]: 13.8 µM | TGI [44]: 38.8 µM | GI50 [45]: 13.4 µM | TGI [45]: 26.6 µM | GI50 [46]: 4.59 µM | TGI [46]: 24.2 µM | GI50 [47]: 3.45 µM | TGI [47]: 14 µM | GI50 [48]: 11.6 µM | TGI [48]: 25 µM | GI50 [49]: 17.3 µM | TGI [49]: 31.7 µM | GI50 [50]: 7.54 µM | TGI [50]: 20.1 µM | GI50 [51]: 7.82 µM | TGI [51]: 20.5 µM | GI50 [52]: 13.4 µM | TGI [52]: 26.7 µM | GI50 [53]: 3.06 µM | TGI [53]: 10.1 µM | GI50 [54]: 3.08 µM | TGI [54]: 10.7 µM | GI50 [55]: 1.97 µM | TGI [55]: 15.6 µM | GI50 [56]: 4.65 µM | TGI [56]: 16.3 µM | GI50 [57]: 11.3 µM | TGI [57]: 23.6 µM

CCC1=C[C@@H]2CN(C1)Cc1c([nH]c3ccccc13)[C@@](C(=O)OC)(c1cc3c(cc1OC)N(C=O)[C@H]1[C@@](O)(C(=O)OC)[C@H](OC(C)=O)[C@]4(CC)[C@@H]5C[C@@H]5CN5CC[C@]31[C@@H]54)C2
GI50 [1]: < 0.000625 µM | TGI [1]: > 6.25 µM

c1ccc(C(=NNc2nc3ccccc3o2)c2ccccn2)nc1
GI50 [1]: 0.0285 µM | TGI [1]: 0.196 µM

O=C(NC1CC1)c1ccc(-c2nc3ccc4[nH]ncc4c3c3c2CCCC3)cc1
GI50 [1]: 1.5 µM | TGI [1]: 7.14 µM

COc1ccc(/C=C\c2cc(OC)c(OC)c(OC)c2)cc1OC(=O)C(N)CCC(=O)O (centres undefined)
TGI [1]: > 100 µM

C/C=C(\C)C(=O)N[C@H]1[C@@H](OC(C)=O)C[C@]2(C)C3CC[C@@]4(C)C(CC[C@@H]4C(C)N(C)C)C3CCC2[C@H]1O (some centres undefined)
GI50 [1]: 2.02 µM | TGI [1]: 9.67 µM

CCCc1ccc(S(=O)(=O)N[C@H]2CC[C@H]3[C@@H]4CCc5cc(O)ccc5[C@H]4CC[C@]23C)cc1
GI50 [1]: 2.32 µM | TGI [1]: 9.51 µM

CCCCCNC(=O)[C@@H]1CCCN2C(=O)CC[C@H](NC(=O)[C@H](Cc3ccc(OP(=O)(O)O)cc3)NC(C)=O)C(=O)N12
GI50 [1]: > 25 µM | TGI [1]: > 25 µM
